Experiments:
Assay in all cases: Enzyme Assay
[1] = molecular target: Matrix metalloproteinase-14 (Homo sapiens, UniProt P50281); settings: pH 6.8; 25 °C
[2] = molecular target: Matrix metalloproteinase-9 (Homo sapiens, UniProt P14780); settings: pH 6.8; 25 °C
[3] = molecular target: 72 kDa type IV collagenase (Homo sapiens, UniProt P08253); settings: pH 6.8; 25 °C
Stromelysin-1 = Stromelysin-1 (Homo sapiens, UniProt P08254); settings: pH 6.8; 25 °C
[4] = molecular target: T1, A disintegrin and metalloproteinase with thrombospondin motifs 5 (Homo sapiens, UniProt Q9UNA0); settings: pH 6.8; 37 °C
T1 sequence (Q9UNA0 whole entry): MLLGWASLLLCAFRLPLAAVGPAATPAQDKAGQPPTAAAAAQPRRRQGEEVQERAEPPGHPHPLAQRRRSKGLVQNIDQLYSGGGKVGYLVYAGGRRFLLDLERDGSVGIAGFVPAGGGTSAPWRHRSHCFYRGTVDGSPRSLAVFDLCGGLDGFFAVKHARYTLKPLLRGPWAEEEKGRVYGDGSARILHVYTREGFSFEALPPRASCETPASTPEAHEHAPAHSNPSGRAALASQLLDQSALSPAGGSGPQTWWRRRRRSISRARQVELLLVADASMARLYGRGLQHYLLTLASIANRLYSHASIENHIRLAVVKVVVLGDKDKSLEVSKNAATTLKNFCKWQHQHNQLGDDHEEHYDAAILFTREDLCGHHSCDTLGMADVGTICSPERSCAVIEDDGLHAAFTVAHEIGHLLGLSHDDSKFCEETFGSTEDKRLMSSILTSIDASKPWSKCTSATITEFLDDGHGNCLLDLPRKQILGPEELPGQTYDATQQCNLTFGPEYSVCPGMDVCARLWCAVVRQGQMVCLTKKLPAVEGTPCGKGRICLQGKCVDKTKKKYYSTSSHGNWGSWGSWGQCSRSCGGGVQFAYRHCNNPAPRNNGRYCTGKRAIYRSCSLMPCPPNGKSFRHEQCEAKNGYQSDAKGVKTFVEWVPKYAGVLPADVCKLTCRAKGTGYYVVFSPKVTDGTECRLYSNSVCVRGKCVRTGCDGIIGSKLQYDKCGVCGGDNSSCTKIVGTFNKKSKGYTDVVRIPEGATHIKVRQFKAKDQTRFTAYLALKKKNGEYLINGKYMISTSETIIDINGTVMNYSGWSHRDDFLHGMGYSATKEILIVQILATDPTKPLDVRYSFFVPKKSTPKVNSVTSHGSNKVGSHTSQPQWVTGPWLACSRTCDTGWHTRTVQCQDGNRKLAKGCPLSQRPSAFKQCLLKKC

Collagenase 3 = Collagenase 3 (Homo sapiens, UniProt P45452); settings: pH 6.8; 25 °C
Stromelysin-2 = Stromelysin-2 (Homo sapiens, UniProt P09238); settings: pH 6.8; 25 °C
[5] = molecular target: Macrophage metalloelastase (Homo sapiens, UniProt P39900); settings: pH 6.8; 25 °C
[6] = molecular target: T2, A disintegrin and metalloproteinase with thrombospondin motifs 4 (Homo sapiens, UniProt O75173); settings: pH 6.8; 25 °C
T2 sequence (O75173 whole entry): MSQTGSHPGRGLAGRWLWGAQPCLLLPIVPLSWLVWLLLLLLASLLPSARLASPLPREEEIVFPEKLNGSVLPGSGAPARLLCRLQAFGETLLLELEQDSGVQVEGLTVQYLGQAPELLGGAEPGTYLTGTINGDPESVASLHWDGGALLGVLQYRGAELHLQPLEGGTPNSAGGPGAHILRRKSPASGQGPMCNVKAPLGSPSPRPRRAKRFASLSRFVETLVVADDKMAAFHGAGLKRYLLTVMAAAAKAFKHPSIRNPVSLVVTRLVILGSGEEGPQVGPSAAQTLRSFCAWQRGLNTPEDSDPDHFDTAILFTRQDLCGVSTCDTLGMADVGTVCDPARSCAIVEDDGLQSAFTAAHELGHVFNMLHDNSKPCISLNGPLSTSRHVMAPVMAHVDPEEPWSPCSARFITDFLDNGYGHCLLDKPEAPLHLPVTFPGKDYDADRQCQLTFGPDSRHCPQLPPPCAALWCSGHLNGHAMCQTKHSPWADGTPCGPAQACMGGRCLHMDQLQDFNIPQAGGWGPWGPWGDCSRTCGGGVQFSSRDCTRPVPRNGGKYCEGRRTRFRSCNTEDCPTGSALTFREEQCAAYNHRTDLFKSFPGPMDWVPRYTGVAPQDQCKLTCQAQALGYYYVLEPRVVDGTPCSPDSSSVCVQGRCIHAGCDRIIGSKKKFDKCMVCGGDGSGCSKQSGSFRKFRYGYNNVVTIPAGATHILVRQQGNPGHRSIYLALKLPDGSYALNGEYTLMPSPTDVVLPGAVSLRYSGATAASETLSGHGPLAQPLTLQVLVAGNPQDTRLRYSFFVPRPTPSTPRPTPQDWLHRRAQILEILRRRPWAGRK

Neutrophil collagenase = Neutrophil collagenase (Homo sapiens, UniProt P22894); settings: pH 6.8; 25 °C
Matrilysin = molecular target: T3, Matrilysin (Homo sapiens, UniProt P09237); settings: pH 6.8; 25 °C
T3 sequence (P09237 whole entry): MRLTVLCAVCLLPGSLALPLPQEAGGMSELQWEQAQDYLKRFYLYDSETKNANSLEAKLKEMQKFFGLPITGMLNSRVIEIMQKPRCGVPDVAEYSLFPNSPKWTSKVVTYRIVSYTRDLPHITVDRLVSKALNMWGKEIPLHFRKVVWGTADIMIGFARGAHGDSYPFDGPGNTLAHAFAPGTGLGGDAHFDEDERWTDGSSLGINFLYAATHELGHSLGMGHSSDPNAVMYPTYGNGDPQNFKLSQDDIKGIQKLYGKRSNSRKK

Interstitial collagenase = molecular target: T4, Interstitial collagenase (Homo sapiens, UniProt P03956); settings: pH 6.8; 25 °C
T4 sequence (P03956 whole entry): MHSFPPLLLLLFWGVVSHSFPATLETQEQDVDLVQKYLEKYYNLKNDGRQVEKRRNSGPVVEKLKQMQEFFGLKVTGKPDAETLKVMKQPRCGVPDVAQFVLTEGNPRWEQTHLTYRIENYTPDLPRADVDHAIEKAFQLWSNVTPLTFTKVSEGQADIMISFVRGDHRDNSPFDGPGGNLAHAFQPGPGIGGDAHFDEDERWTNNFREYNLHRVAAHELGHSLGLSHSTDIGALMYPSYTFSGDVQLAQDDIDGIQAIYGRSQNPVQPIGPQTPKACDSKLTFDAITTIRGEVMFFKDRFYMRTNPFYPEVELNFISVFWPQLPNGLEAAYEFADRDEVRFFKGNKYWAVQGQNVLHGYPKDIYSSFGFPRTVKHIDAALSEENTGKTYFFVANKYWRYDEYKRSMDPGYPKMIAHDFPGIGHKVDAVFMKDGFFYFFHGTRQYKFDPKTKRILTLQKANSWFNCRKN

Sequence of Matrix metalloproteinase-9 (P14780 whole entry): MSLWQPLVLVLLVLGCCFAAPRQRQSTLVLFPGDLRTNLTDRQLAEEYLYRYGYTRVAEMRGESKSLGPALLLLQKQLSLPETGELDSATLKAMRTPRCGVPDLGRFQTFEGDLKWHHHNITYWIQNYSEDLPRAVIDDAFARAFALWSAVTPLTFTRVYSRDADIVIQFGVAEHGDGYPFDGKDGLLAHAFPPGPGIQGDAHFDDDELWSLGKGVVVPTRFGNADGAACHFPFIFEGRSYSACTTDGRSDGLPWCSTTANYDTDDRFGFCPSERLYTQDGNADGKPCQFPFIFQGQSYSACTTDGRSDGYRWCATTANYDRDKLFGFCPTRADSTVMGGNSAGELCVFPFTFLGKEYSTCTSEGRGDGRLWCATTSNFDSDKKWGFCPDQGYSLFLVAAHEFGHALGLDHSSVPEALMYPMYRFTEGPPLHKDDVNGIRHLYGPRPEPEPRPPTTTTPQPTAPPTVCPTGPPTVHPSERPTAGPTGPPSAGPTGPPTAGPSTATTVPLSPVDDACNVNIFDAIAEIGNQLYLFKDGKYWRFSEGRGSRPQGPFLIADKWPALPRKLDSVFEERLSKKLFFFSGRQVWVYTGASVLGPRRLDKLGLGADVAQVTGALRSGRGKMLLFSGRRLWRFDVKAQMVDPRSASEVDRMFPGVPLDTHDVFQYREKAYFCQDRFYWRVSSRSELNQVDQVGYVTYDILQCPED
Sequence of Stromelysin-2 (P09238 whole entry): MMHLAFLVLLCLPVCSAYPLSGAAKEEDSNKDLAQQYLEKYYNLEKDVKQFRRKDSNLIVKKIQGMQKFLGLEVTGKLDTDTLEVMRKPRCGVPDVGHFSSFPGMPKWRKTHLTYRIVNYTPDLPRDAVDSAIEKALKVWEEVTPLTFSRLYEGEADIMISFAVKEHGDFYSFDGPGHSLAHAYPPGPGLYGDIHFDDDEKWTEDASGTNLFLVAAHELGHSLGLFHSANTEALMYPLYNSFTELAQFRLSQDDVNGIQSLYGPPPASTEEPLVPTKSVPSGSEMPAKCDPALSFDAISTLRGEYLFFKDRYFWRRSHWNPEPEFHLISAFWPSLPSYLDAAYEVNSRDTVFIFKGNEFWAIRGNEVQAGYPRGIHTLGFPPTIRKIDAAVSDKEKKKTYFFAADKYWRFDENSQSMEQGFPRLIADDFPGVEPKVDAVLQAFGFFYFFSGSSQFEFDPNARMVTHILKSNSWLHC
Sequence of 72 kDa type IV collagenase (P08253 whole entry): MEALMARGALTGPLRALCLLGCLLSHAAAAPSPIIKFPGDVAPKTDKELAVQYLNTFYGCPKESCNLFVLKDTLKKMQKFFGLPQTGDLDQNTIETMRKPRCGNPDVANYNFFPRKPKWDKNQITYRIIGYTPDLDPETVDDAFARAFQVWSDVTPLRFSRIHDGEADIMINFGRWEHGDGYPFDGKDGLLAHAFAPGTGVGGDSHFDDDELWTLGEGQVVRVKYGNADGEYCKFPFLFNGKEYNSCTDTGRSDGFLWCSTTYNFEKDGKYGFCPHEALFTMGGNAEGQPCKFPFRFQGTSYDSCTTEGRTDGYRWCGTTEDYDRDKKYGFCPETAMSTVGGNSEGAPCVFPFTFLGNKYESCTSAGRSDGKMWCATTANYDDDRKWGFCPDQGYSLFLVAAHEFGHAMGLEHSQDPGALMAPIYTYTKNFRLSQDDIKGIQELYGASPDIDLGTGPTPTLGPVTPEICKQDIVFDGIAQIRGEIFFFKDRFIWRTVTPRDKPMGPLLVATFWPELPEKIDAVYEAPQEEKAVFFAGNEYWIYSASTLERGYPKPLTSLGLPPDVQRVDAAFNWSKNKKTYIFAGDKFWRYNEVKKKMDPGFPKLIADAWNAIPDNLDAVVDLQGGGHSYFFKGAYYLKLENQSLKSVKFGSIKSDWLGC
Sequence of Stromelysin-1 (P08254 whole entry): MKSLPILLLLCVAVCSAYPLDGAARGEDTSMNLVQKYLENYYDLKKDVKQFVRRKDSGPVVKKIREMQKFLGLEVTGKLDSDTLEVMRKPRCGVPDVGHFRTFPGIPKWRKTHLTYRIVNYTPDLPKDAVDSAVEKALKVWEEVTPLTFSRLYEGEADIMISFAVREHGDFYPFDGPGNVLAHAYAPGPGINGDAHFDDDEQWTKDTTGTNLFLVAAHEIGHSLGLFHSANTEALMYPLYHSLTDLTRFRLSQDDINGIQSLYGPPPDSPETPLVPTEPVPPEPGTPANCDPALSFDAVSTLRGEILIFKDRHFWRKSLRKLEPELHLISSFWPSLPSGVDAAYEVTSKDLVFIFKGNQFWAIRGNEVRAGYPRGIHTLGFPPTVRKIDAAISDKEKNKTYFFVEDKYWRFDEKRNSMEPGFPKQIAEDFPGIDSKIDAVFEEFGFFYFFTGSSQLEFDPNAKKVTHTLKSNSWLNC
Sequence of Macrophage metalloelastase (P39900 whole entry): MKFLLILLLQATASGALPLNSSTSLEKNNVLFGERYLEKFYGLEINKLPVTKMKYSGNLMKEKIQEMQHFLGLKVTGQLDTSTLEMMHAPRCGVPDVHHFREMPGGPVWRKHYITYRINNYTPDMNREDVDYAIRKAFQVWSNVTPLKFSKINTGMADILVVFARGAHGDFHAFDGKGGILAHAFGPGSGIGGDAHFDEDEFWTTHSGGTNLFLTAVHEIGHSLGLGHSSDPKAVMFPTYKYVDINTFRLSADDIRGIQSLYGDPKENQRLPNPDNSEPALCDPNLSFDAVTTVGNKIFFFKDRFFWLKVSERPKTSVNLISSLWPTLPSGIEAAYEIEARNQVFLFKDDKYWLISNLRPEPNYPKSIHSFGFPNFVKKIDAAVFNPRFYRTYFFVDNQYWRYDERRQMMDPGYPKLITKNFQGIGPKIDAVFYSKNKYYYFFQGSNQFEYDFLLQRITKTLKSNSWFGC
Sequence of Neutrophil collagenase (P22894 whole entry): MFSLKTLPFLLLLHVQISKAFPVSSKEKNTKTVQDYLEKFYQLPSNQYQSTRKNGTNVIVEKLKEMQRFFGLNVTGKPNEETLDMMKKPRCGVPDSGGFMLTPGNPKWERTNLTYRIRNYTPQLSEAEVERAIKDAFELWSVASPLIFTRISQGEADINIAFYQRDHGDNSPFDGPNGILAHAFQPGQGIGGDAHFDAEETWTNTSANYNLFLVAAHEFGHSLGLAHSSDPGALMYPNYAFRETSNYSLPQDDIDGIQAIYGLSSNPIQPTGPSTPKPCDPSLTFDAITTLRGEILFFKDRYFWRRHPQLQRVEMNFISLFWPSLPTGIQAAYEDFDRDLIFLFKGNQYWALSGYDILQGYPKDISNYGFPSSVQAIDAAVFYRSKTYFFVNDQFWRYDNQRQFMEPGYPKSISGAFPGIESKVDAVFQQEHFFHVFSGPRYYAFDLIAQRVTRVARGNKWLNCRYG

SMILES	Ki [1] [nM]	Ki [2] [nM]	Ki [3] [nM]	Ki (Stromelysin-1) [nM]	Ki [4] [nM]	Ki (Collagenase 3) [nM]	Ki (Stromelysin-2) [nM]	Ki [5] [nM]	Ki [6] [nM]	Ki (Neutrophil collagenase) [nM]	IC50 (Matrilysin) [nM]	IC50 [1] [nM]	IC50 (Neutrophil collagenase) [nM]	IC50 [2] [nM]	IC50 [3] [nM]	IC50 (Interstitial collagenase) [nM]	IC50 (Stromelysin-1) [nM]	IC50 (Collagenase 3) [nM]	Ki (Interstitial collagenase) [nM]
NC(=O)[C@H](CCC(=O)O)NC(=O)c1ccc(-c2cc(-c3ccccc3)cs2)cc1 [Inhibitor, 16]	968	2230	127	5820	874	501	299	2.5											
Cc1ccc(-c2ccc(CCC(=O)N[C@@H](CCC(=O)O)C(N)=O)cc2)s1 [Inhibitor, 17]	2350	91	57	2160	3220	338	390	3.3	> 10000	5.3									
NC(=O)[C@H](CCC(=O)O)NC(=O)CCc1ccc(-c2ccc(-c3ccccc3)cc2)cc1 [Inhibitor, 18]	1050	2190	47	103	5800	18	54	3.3		205									
NC(=O)[C@H](CCC(=O)O)NC(=O)CCc1ccc(-c2ccc(-c3ccccc3)s2)cc1 [Inhibitor, 19]	> 10000	1330	583	329	585		352	2.9											
CC(C)C(NS(=O)(=O)c1ccc2c(c1)oc1ccc(N3CCOC3=O)cc12)C(=O)O (stereo unspecified) [MMP Inhibitor, 2]											> 2000	> 2000	37	> 300	66	> 2000	> 300	46	
O=C(NCc1ccc(F)c(Cl)c1)c1cc(C(=O)NCC23CCC(C(=O)O)(CC2)CC3)n2nccc2n1 [MMP Inhibitor, 6]																		33.4	
NC(=O)[C@@H](CCC(=O)O)NC(=O)[C@H](CCC(=O)O)NC(=O)C(Cc1cc(-c2ccc(-c3cccc(Cl)c3)cc2)no1)CP(=O)(O)c1ccc(Br)cc1 (stereo partly specified) [RXP470, Compound 4]	> 100	> 100	> 100				8	0.2		> 100									> 1000
NC(=O)[C@H](CCC(=O)O)NC(=O)CCc1ccc(-c2cc(-c3ccccc3)cs2)cc1 [US8691753, 105]	3010	2630		3000	4200		3110	3.6											

Source: BindingDB's records for doi:10.1074/jbc.M112.380782 (French Alternative Energies and Atomic Energy Commission, 2012)
